Measurements as given in article PMC8308845, “Discovery of Novel Chemical Series of OXA-48 β-Lactamase Inhibitors by High-Throughput Screening” (Pharmaceuticals, 2021).
Where two headings read alike, the source gives them in different places.

Tests used:
[1] = target: T1, OXA-48 (Klebsiella pneumoniae, UniProt Q6XEC0); experiment: Dilution after preincubation of OXA-48 with inhibitors; assay type: biochemical
T1 construct: made in house; host or cells: E. coli BL21(DE3), T7 expression system
Description: To confirm the reversibility of OXA-48 inhibition by compounds ID1 and ID2, dilution-after-preincubation tests were also performed. Specifically, the experiments were conducted by preincubating (0 and 60 min) five-fold concentrated test compounds and OXA-48 enzyme, next diluting (1:5) the assay well to the standard reaction conditions and adding the nitrocefin substrate. In parallel, a control experiment with compounds ID1 and ID2 tested under the standard protocol was also run. Based on the assay design, reversible inhibitors are expected to regain enzyme activity after dilution of the enzyme-inhibitor (EI) complex and show no significant difference between AC50 values from samples preincubated under high-concentration and standard conditions. Conversely, irreversible inhibitors are envisaged not to recover any enzyme activity following dilution of the tight EI complex, which will translate in a […] in OXA-48 AC50 of high-concentration preincubated samples.
In order to validate the results obtained in the time-dependent inhibition assay, dose–response curves of reference inhibitor tazobactam, test compounds and enzyme mix were prepared as above described and 5-fold concentrated. Compounds (20 μL of 10X compounds) and enzyme (10 μL 20X enzyme in order to have a 0.0014 ng/µL OXA-48 final concentration) were preincubated for a time period of 60 min with the selected compounds and 90 min with tazobactam. The preincubation time was identified in the time-dependent inhibition experiment as suitable to detect a shift of the IC50 value. At the end of preincubation, the mix was diluted 1:5 times to restore the standard assay conditions as described for time-dependent inhibition. The reactions were started by transferring of 15 μL of enzyme-compounds or control diluted from preincubation plate into assay plate and adding 5 μL 4X nitrocefin substrate (25 µM final concentration) after 60 or 90 min. In parallel, a control experiment was assembled under the same conditions, but omitting the preincubation time between compounds and OXA-48.
a. If the AC50 value observed in the standard assay conditions was substantially unaffected by the preincubation with the 5X samples, the corresponding compound was classified as putative reversible inhibitor.

[2] = target: T1, OXA-48; experiment: Apparent Km and Vmax of nitrocefin with inhibitor; Ki and α determination; assay type: biochemical; conditions: for type of reversible inhibition: Lineweaver–Burk plots, with respect to nitrocefin; for α value: mixed model inhibition fit
Description: To further elucidate the type of reversible inhibition of compounds ID1 and ID2, double substrate (nitrocefin) and inhibitor titrations were run.
In this study, the characterization of the type of reversible inhibition was performed by the determination of the apparent Km and Vmax of nitrocefin in the presence of three concentrations of the selected inhibitors.
Stock AC30, AC50, and AC70 solutions for selected compounds were prepared at 200X in 100% DMSO. 2X compounds were prepared by diluting stock AC30, AC50 and AC70 solutions 1:100 in 1X reaction buffer.
20 μL of 2X compounds with 1% DMSO; 10 μL 4X enzyme (0.0014 ng/µL OXA-48 final concentration) were dispensed into preincubation plate and kept for 15′ at rt. […] Each compound ACn was tested in duplicate against each dose of nitrocefin. Compound activity was quantified on the fluorescence signal measured at 520 nm (kinetic measurement for 60 min of reaction). The initial velocity (V0) of the reaction was computed in the first 300′’ of measurements as robust slope. The slopes computed by Genedata Screener 13.0.5. were copied in GraphPad Prism (version 7.00, GraphPad Software Inc.) for the Michaelis-Menten analysis and the Lineweaver-Burk analysis. The average of slope replicates (n = 2) was transformed into double-reciprocal and linear regression analysis was applied.
a. When the Vmax value was independent from inhibitor concentration and the Km value of the substrate was directly proportional to the inhibitor concentration, the corresponding compound was assigned as competitive inhibitor.
V0 data obtained for the determination of apparent Km and Vmax of nitrocefin in the presence of three concentrations of the selected inhibitors, were used for the computation of Ki and a values using in GraphPad Prism (version 8.00, GraphPad Software Inc.) the mixed model inhibition/nonlinear regression curve fit method.

[3] = tested on: K. pneumoniae ATCC BAA-2524; experiment: MIC by broth microdilution, β-lactam-resistant strain producing OXA-48; assay type: cell-based, Klebsiella pneumoniae; conditions: Klebsiella pneumoniae, ATCCBAA2524, no β-lactam, BLI tested at 32 µg/mL, read-out: MIC, BLI alone
Source text: To evaluate the capability of restoring β-lactam susceptibility, the two most promising representatives of SC_2 (ID3) and SC_7 (ID2) were screened alone and in combination with ampicillin (AMP) and IMP against sensitive and resistant Gram-negative bacteria. Avibactam and tazobactam were also included in the MIC characterization as BLI reference compounds. Specifically, we used E. coli ATCC25922 as antibiotic-sensitive strain, while E. coli ATCC BAA-2523 and K. pneumoniae ATCC BAA-2524 as β-lactam-resistant bacteria, producing OXA-48 carbapenemase.
Test compounds and tazobactam were tested at 32 µg/mL, while avibactam was applied at 4 µg/mL. […] Both antibiotics were selected for the combination study as they can be hydrolyzed by the target OXA-48 enzyme.
MIC values were determined by the broth dilution method and interpreted using published guidelines described by Clinical and Laboratory Standards Institute (CLSI).
All BLIs were dissolved in 100% DMSO and they were tested at a fixed concentration of 32 µg/mL and 1% of DMSO final concentration. Avibactam was used as reference β-lactamase inhibitor. All antimicrobials were prepared in line with CLSI susceptibility testing standards. AMP (USP # 1033000; batch no. K1M493) was dissolved at 5.12 mg/mL, IMP (USP # 1337809; batch no. R038R0) and avibactam (Biochem # NXL 104; batch no. 20180726) were dissolved at 1.28 mg/mL in the respective solvents recommended by CLSI (2). Solutions at 4X the final concentrations of the test range were made in Cation adjusted Mueller-Hinton broth (CA-MHB, BD # 212322; batch no. 6117994; Expiry date: 29.02.2020) by serial dilutions, and then diluted 2-fold with CA-MHB (for antimicrobials alone), or with the BLIs/avibactam (for combinations of new/reference inhibitors and antimicrobials). Moreover, all BLIs were tested alone at a fixed concentration of 32 μg/mL. The final concentration of DMSO in the test tubes was 1% for each different combination.
50 μL of each well were then transferred from the masterblock into 96-well plates to whom were then added 50 μL of the final inoculum. MIC tests were performed by broth microdilution in line with CLSI susceptibility testing standards. Bacterial inocula were prepared at ca. 1 × 10^6 CFU/mL by diluting 100-fold a 0.5 McFarland suspension in CA-MHB with TES (TREK Diagnostic Systems, Product code: T3462; Batch: 356347; Expiry date: 12-Jun-2019). 50 μL of antibacterial solutions at 2 × the final concentrations were diluted 2-fold with 50 μL of inoculum to give a final inoculum of ca. 5 × 10^5 CFU/mL and desired test concentrations of antibacterial agents. Test plates were incubated according to CLSI guidelines and read visually. MIC values corresponded to the first well with no visible growth.

[4] = preincubation time 0 min, concentrated compound and enzyme, diluted 1:5 before nitrocefin, read-out: OXA-48 AC50, High Dose Preincubation
[5] = preincubation time 0 min, read-out: OXA-48 AC50, Standard Preincubation
[6] = preincubation time 60 min, concentrated compound and enzyme, diluted 1:5 before nitrocefin, read-out: OXA-48 AC50, High Dose Preincubation
[7] = preincubation time 60 min, read-out: OXA-48 AC50, Standard Preincubation

T1 sequence (Q6XEC0 23-265, looked up): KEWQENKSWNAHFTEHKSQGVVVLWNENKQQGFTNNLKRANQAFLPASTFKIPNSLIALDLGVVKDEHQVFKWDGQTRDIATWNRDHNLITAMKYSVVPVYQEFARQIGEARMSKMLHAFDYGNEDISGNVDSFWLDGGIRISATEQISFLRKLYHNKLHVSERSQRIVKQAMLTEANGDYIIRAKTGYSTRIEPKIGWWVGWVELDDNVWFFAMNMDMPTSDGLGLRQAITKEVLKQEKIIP

| AC50 with concentrated preincubation relative to AC50 under standard assay protocol ([1]; 90 min preincubation) | AC50 ([1]; preincubation time 90 min, concentrated compound and enzyme, diluted 1:5 before nitrocefin, read-out: OXA-48 AC50, High Dose Preincubation) [nM] | AC50 ([1]; preincubation time 90 min, read-out: OXA-48 AC50, Standard Preincubation) [nM] | Compound | AC50 [1, 4] [nM] | AC50 [1, 5] [nM] | AC50 [1, 6] [nM] | AC50 [1, 7] [nM] | type of reversible inhibition [2] | α value [2] | MIC [3] [µg/mL] |
| --- | --- | --- | --- | --- | --- | --- | --- | --- | --- | --- |
| – | – | – | O=C(O)c1ccc(C=Nn2c(S)nnc2-c2ccccc2)cc1 [ID1] | 630 | 1730 | 1090 | 1930 | competitive | 5.50 | – |
| – | – | – | CCc1ccc(-c2n[nH]c3nc(-c4ccc(C(=O)O)cc4)cc(C(=O)O)c23)cc1 [ID2] | 1010 | 2310 | 1450 | 2440 | competitive | 5.44 | > 32 |
| almost three-fold lower | 97 | 260 | C[C@]1(Cn2ccnn2)[C@H](C(=O)O)N2C(=O)C[C@H]2S1(=O)=O [tazobactam, reference compound] | 790 | 820 | – | – | – | – | > 32 |
